Test results taken from US4732978A, “Novel substituted naphthyloxymethyl quinoline derivatives as anti-inflammatory and antiallergy agents” (American Home Products Corporation, priority 1986, dated 1988).
Each block holds one compound with its values, some of them ahead of it.

How the values were obtained:
[1] = test system: AA-induced mouse ear edema; assay: Arachidonic acid (AA)-induced murine ear edema test, topical; assay type: in vivo, mouse (Swiss Webster female); conditions: for % Change from Control, TOPICAL, AA: AA 1 mg/ear (footnote a), * = <0.05
Source text: (§1) The ability of the compounds of the invention to inhibit the lipoxygenase and/or cyclooxygenase pathways of arachidonic acid is examined in the in vivo arachidonic acid (AA)-/12-O-tetradecanoylphorbol acetate (TPA)-induced murine ear edema test.
(§2) According to this test, Swiss Webster female mice (Buckshire), approximately 8 weeks old, are placed into plastic boxes in groups of six. Eight groups of mice receive AA topically on the right ear, and another 8 groups receive TPA topically on the right ear. AA and TPA are dissolved in acetone at concentrations of 100 mg/mL and 100 μg/mL respectively. The phlogistics are applied to the right ear by the means of an automatic pipet. Volumes of 10 μL are applied to the inner and outer surfaces of the ear. […] The left ear (control) receives acetone delivered in the same manner. Oral and topical dosing regimens are as follows: (1) drugs are given 30 minutes prior to AA treatment, and (2) drugs are given 30 minutes after treatment with TPA.
(§3) Measurements are taken with Oditest calipers, 0-10 mm with 0.01 graduations. The right and left ears are measured after 1 hour AA-induced inflammation and 4 hours after TPA-induced inflammation.
(§4) The difference between right and left ear thickness is calculated and the significance is determined by a one way analysis of variance with Dunnett's comparisons to control (P=0.05). Drug effects are expressed as a percent change from control values: [formula]
(§5) The ED50 values are also given for these compounds where this has been determined.

[2] = test system: TPA-induced mouse ear edema; assay: 12-O-tetradecanoylphorbol acetate (TPA)-induced murine ear edema test, topical; assay type: in vivo, mouse (Swiss Webster female); conditions: for % Change from Control, TOPICAL, TPA: TPA 10 μg/ear (footnote b), * = <0.05
Source text: as §1, §2, §3, §4, §5

[3] = test system: synthesis of cyclooxygenase oxidation product TxB2; assay: Inhibition of synthesis of cyclooxygenase product TxB2 (rat polymorphonuclear leukocytes, procedure of Example 17); assay type: cell-based, rat (female Wistar); conditions: Leukocyte, rat PMN; for IC50: TxA2
Method: (§6) Peritoneal PMN are obtained from female Wistar rats (150-250 g) that received an i.p. injection of 6% glycogen (10 mL). After 24 hours, rats are killed by CO2 asphyxiation and peritoneal cells are harvested by peritoneal lavage using Ca^++ and Mg^++ free Hanks' balanced salt solution (HBSS). The peritoneal exudate is centrifuged at 400 g for 10 minutes. After centrifugation, the lavaged fluid is removed and the cell pellet is resuspended in HBSS containing Ca^++ and Mg^++ and 10 mM L-cysteine at a concentration of 2×10^7 cells/mL. To 1 mL portions of cell suspension, test drugs or vehicle are added and incubated at 37° C. for 10 minutes. Following this preincubation, the calcium ionophore (10 μM), A23187, is added together with 0.5 μCi [^14 C] arachidonic acid and further incubated for 10 minutes. The reaction is stopped by the addition of ice cold water (3 mL) and acidifying to pH 3.5. Lipoxygenase products are then extracted twice into diethyl ether. The pooled ether extracts are evaporated to dryness under nitrogen and the residue is redissolved in a small volume of methanol and spotted on aluminum backed pre-coated thin layer chromatographic plates. The samples are then co-chromatographed with authentic reference 5-HETE, in the solvent system--hexane:ether:acetic acid (50:50:3). After chromatography, the areas associated with 5-HETE standard are identified by autoradiography, cut out and quantitated by liquid scintillation.
(§7) The procedure of Example 17 is also employed for the determination of the ability of the compounds of the invention to inhibit the synthesis of the arachidonic acid cyclooxygenase oxidation products TxB2 and PGE2.
In this assay, the procedure of Example 17 is carried out as described. However, in order to determine cyclooxygenase activity, the samples are cochromatographed with authentic reference TxB2 and PGE2 in the solvent system ethyl acetate:formic acid (80:1) and the upper phase of ethyl acetate:isoctane:acetic acid:water (110:50:20:100). After chromatography, the areas associated with TxB2 and PGE2 standards are identified by autoradiography, cut out and quantitated by liquid scintillation techniques.
(§8) The results are calculated as in Example 17.

[4] = test system: 5-HETE synthesis by rat glycogen-elicited polymorphonuclear leukocytes; assay: Inhibition of 5-HETE synthesis by rat glycogen-elicited polymorphonuclear leukocytes (lipoxygenase); assay type: cell-based, rat (female Wistar); conditions: Leukocyte, rat PMN, A23187 stimulated; for inhibition at 50 µM: read-out: >50% Inhibitory at 50 μm (5-HETE synthesis)
Method: The assay of this Example measures the ability of the compounds of the invention to inhibit the synthesis of 5-HETE by rat glycogen-elicited polymorphonuclear leukocytes.
as §6
The compounds of this invention are tested in this assay at a level of 50 μm, unless otherwise noted. The results are summarized in Table 1, where those compounds having an inhibition of >50% are designated by a "+". Some results are express as an IC50 value.

[5] = test system: synthesis of cyclooxygenase oxidation product PGE2; assay: Inhibition of synthesis of cyclooxygenase product PGE2 (rat polymorphonuclear leukocytes, procedure of Example 17); assay type: cell-based, rat (female Wistar); conditions: Leukocyte; rat PMN
Method: as §6, §7
In this assay, the procedure of Example 17 is carried out as described. […] After chromatography, the areas associated with TxB2 and PGE2 standards are identified by autoradiography, cut out and quantitated by liquid scintillation techniques.
as §8

[6] = test system: ovalbumin induced bronchospasm; assay: Inhibition of ovalbumin-induced bronchospasm mediated by endogenous mediators in sensitized guinea pigs; assay type: in vivo, guinea pig (male Hartley); conditions: 50 mg/kg intraduodenal, 10 minutes before intravenous ovalbumin challenge
Method: The assay of this Example measures the in vivo ability of the compounds of the invention to inhibit the bronchospasm induced in guinea pigs by endogenous mediators of the bronchoconstriction.
Male Hartley strain guinea pigs weighing 250-350 g are sensitized to chicken ovalbumin (OA) (10 mg i.p.) on days 1 and 3 and used starting on day 26. The animals are anesthetized with pentobarbital sodium (50 mg/kg, i.p.), bilateral vagotomy is performed, and the jugular vein is cannulated for injection of drugs and the carotid artery for monitoring blood pressure. The trachea is cannulated for artificial ventilation by a miniature Starling pump and for indirect measurement of respiratory volume changes as described, infra. Succinylcholine (2 mg/kg, i.v.) is administered to arrest spontaneous respiration. […]
Respiratory volume changes are determined by a calibrated piston whose travel is recorded, via a linear transducer, on a Beckman Dynograph recorder. Maximal bronchoconstrictor volume is determined by clamping off the trachea at the end of the experiment. Overflow volumes at minutes 1, 3 and 5 are obtained from the recorded charts.
Area under the volume overflow curve (AUC) is estimated, using the overflow values at 1, 3 and 5 minutes, and expressed as a percentage of the maximal overflow AUC (equation 1): [formula] […]

Structure (SMILES): Fc1ccccc1OCc1ccc2ccccc2n1 [Example 2, 2-[(2-Fluorophenoxy)methyl]quinoline]
% Change from Control, TOPICAL, AA [1]: -40%
% Change from Control, TOPICAL, TPA [2]: -42%
inhibition at 50 µM [3]: > 50%
inhibition at 50 µM [4]: > 50%

Structure (SMILES): Brc1ccc(SCc2nc3ccccc3s2)cc1 [Example 13]
inhibition at 50 µM [3]: > 50%
inhibition at 50 µM [4]: > 50%

Structure (SMILES): Clc1ccc(OCc2ccc3ccccc3n2)cc1Cl [Example 7, 2-[(3,4-Dichlorophenoxy)methyl]quinoline]
% Change from Control, TOPICAL, AA [1]: -54%
% Change from Control, TOPICAL, TPA [2]: -21%
inhibition at 50 µM [3]: > 50%
inhibition at 50 µM [4]: > 50%

IC50 [5]: > 100 µM
IC50 [3]: 3.2 µM
IC50 [4]: 9.9 µM
Structure (SMILES): Fc1cccc(OCc2ccc3ccccc3n2)c1 [Example 5, 2-[(3-Fluorophenoxy)methyl]quinoline]
TOPICAL ED50, AA [1]: 0.3 mg/ear
% Change from Control, TOPICAL, AA [1]: -63%
TOPICAL ED50, TPA [2]: 1.6 mg/ear
% Change from Control, TOPICAL, TPA [2]: -47%
inhibition at 50 µM [3]: > 50%
inhibition at 50 µM [4]: > 50%

Structure (SMILES): Brc1cccc(OCc2ccc3ccccc3n2)c1 [Example 1, 2-[(3-Bromophenoxy)methyl]quinoline]
TOPICAL ED50, AA [1]: 2.0 mg/ear
% Change from Control, TOPICAL, AA [1]: -43%
TOPICAL ED50, TPA [2]: 0.7 mg/ear
% Change from Control, TOPICAL, TPA [2]: -62%
% Inhibition of MAX AUC [6]: > 50%
inhibition at 50 µM [3]: > 50%
inhibition at 50 µM [4]: > 50%

Structure (SMILES): Brc1ccccc1OCc1ccc2ccccc2n1 [Example 8, 2-[(2-Bromophenoxy)methyl]quinoline]
% Change from Control, TOPICAL, AA [1]: -32%
% Change from Control, TOPICAL, TPA [2]: -14%
inhibition at 50 µM [3]: > 50%
inhibition at 50 µM [4]: > 50%

Structure (SMILES): c1ccc2nc(COc3cccc4cccnc34)ccc2c1 [Example 15, 2-[(8-quinolinyloxy)-methyl]quinoline]
% Change from Control, TOPICAL, AA [1]: 52%
% Change from Control, TOPICAL, TPA [2]: 53%
inhibition at 50 µM [4]: > 50%

Structure (SMILES): c1ccc2cc(OCc3ccc4ccccc4n3)ccc2c1 [Example 9, 2-[(2-Naphthalenyloxy)methyl]quinoline]
inhibition at 50 µM [3]: > 50%
inhibition at 50 µM [4]: > 50%

Structure (SMILES): Brc1ccc(OCc2ccc3ccccc3n2)cc1 [Example 6, 2-[(4-Bromophenoxy)methyl]quinoline]
% Change from Control, TOPICAL, AA [1]: -36%
% Change from Control, TOPICAL, TPA [2]: -22%
inhibition at 50 µM [3]: > 50%
inhibition at 50 µM [4]: > 50%

IC50 [5]: > 100 µM
IC50 [3]: 7.2 µM
IC50 [4]: 1.5 µM
Structure (SMILES): Clc1cccc(OCc2ccc3ccccc3n2)c1 [Example 3, 2-[(3-Chlorophenoxy)methyl]quinoline]
TOPICAL ED50, AA [1]: 0.3 mg/ear
% Change from Control, TOPICAL, AA [1]: -67%
% Change from Control, TOPICAL, TPA [2]: -60%
inhibition at 50 µM [3]: > 50%
inhibition at 50 µM [4]: > 50%

Structure (SMILES): Clc1ccc(OCc2ccc3ccccc3n2)cc1 [Example 4, 2-[(4-Chlorophenoxy)methyl]quinoline]
TOPICAL ED50, AA [1]: 1.3 mg/ear
% Change from Control, TOPICAL, AA [1]: -43%
% Change from Control, TOPICAL, TPA [2]: -45%
inhibition at 50 µM [3]: > 50%
inhibition at 50 µM [4]: > 50%

Structure (SMILES): Brc1cccc(SCc2nc3ccccc3s2)c1 [Example 14]
inhibition at 50 µM [3]: > 50%
inhibition at 50 µM [4]: > 50%

Structure (SMILES): Brc1c(OCc2ccc3ccccc3n2)ccc2ccccc12 [Example 11, 2-[(1-Bromo-2-naphthalenyloxy)methyl]quinoline]
inhibition at 50 µM [3]: > 50%
inhibition at 50 µM [4]: > 50%

Structure (SMILES): FC(F)(F)c1cccc(OCc2ccc3ccccc3n2)c1 [Example 16, 2-[[3-(trifluoromethyl)phenoxy]methyl]quinoline]
% Change from Control, TOPICAL, AA [1]: 35%
% Change from Control, TOPICAL, TPA [2]: 22%
inhibition at 50 µM [4]: > 50%

IC50 [5]: > 100 µM
IC50 [3]: 6.3 µM
IC50 [4]: 0.4 µM
Structure (SMILES): c1ccc2nc(COc3cccc4ccccc34)ccc2c1 [Example 10, 2-[(1-Naphthalenyloxy)methyl]quinoline]
TOPICAL ED50, AA [1]: 0.3 mg/ear
TOPICAL ED50, TPA [2]: 0.7 mg/ear
inhibition at 50 µM [3]: > 50%
inhibition at 50 µM [4]: > 50%
